IC50 and inhibition data for one molecule are collected here from publication PMC8370666 (Journal of the Iranian Chemical Society, 2021).

Holding throughout (assay): biochemical
One assay addresses SARS-CoV nsp14 (Severe acute respiratory syndrome coronavirus, UniProt P0C6X7).
For assay [1], the target named is vaccinia virus capping enzyme (D1-D12) (Vaccinia virus, UniProt P04298). The settings on record: read-out: % of inhibition at 50 μM, Vaccinia virus D1-D12.
Assay [2] has as its target human RNA N7-MTase (hRNMT) (Homo sapiens, UniProt O43148). The format is biochemical.

As a reminder, the IC50 is the concentration at which inhibition is half-maximal. High values mean lower potency, low ones higher potency. One may read the inhibition as the change of the read-out against control, counted positive when it falls.

Chain of human RNA N7-MTase (hRNMT) (O43148 whole entry): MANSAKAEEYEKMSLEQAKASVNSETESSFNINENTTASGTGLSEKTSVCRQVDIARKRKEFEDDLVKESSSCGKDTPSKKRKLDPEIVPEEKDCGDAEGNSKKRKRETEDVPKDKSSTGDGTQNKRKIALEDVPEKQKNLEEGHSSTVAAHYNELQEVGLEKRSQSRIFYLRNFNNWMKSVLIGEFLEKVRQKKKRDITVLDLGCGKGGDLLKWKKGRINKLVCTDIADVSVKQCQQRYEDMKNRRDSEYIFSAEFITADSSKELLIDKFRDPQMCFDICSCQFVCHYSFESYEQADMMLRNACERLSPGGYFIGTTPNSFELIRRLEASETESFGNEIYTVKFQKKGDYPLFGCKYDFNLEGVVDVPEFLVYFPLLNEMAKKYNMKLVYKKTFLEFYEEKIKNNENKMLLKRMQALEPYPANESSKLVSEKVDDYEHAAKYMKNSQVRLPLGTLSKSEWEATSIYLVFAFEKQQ

In the case of `CCOC(=O)C1=C(N)OC2=C(c3sc(=S)n(-c4ccccc4)c3CC2)C1c1ccc(Cl)cc1` (centres unmarked) [Compound 23d, Ethyl 7-amino-9-(4-chlorophenyl)-3-phenyl-2-thioxo-3,4,5,9-tetrahydro-2H-chromeno[6,5-d]thiazole-8-carboxylate], the IC50 on SARS-CoV nsp14 (SARS-Cov nap14 IC50) is 0.49 ± 0.13 µM; in assay [2] it was less than 0.05 µM. Moreover, the inhibition at 50 µM at SARS-CoV nsp14 (read-out: % of inhibition at 50 μM, SARs-Cov nsp 14) is 57.7 ± 4.26%; in assay [1] it was 72.3 ± 5.58%; in assay [2] (read-out: % of inhibition at 50 μM, hRNMT), 68.6 ± 6.42%.
